Data reported in patent publication US20260069588A1, “VEPDEGESTRANT FOR USE IN TREATING CANCER” (Arvinas Operation, Inc., priority 2022, published 2026).

Experiment: Phase 1 single agent studies in Japanese and Chinese participants (C4891016, C4891018): adverse events
[1] = TEAE treatment related, 200 mg, N = 15

Excerpt: TEAE's from participants in both studies have been combined and are described below.

SMILES: O=C1CC[C@H](N2Cc3cc(N4CCN(CC5CCN(c6ccc([C@@H]7c8ccc(O)cc8CC[C@@H]7c7ccccc7)cc6)CC5)CC4)ccc3C2=O)C(=O)N1 [Compound A, (S)-3-(5-(4-((1-(4-((1R,2S)-6-hydroxy-2-phenyl-1,2,3,4-tetrahydronaphthalen-1-yl)phenyl)piperidin-4-yl)methyl)piperazin-1-yl)-1-oxoisoindolin-2-yl)piperidine-2,6-dione]
- participants with a TRAE (200 mg): 11 of 15 participants
- participants with a TEAE (200 mg, 15 evaluable): 73.3%
- participants with grade 3-4 TEAE (200 mg, 15 evaluable): 33.4%
- TEAE Alanine aminotransferase increased (200 mg, N=15): 26.7%
- TEAE anemia (200 mg, N=15): 40.0%
- TEAE electrocardiogram QT prolonged (200 mg, N=15): 33.3%
- TEAEs constipation, hyperuricemia, hypokalaemia, neutrophil count decreased, each (200 mg, N=15): 20.0%
- TRAEs alanine aminotransferase increased and electrocardiogram QT prolonged, each (200 mg, N=15): 20.0%
- TRAEs aspartate aminotransferase increased, constipation, hyperuricemia, neutrophil count decreased, each (200 mg, N=15): 13.3%
- SAEs (3 participants, 6 Jun 2023): 3 SAEs
- Abdominal discomfort, Grade 1 [1]: 1 (6.7) n (%)
- Abdominal discomfort, Grade 2 [1]: 0 n (%)
- Abdominal discomfort, Grade 3 [1]: 0 n (%)
- Abdominal discomfort, Grade 4 [1]: 0 n (%)
- Abdominal discomfort, Grade 5 [1]: 0 n (%)
- Abdominal discomfort, Missing or Unknown [1]: 0 n (%)
- Abdominal discomfort, Total [1]: 1 (6.7) n (%)
- Alanine aminotransferase increased, Grade 1 [1]: 3 (20.0) n (%)
- Alanine aminotransferase increased, Grade 2 [1]: 0 n (%)
- Alanine aminotransferase increased, Grade 3 [1]: 0 n (%)
- Alanine aminotransferase increased, Grade 4 [1]: 0 n (%)
- Alanine aminotransferase increased, Grade 5 [1]: 0 n (%)
- Alanine aminotransferase increased, Missing or Unknown [1]: 0 n (%)
- Alanine aminotransferase increased, Total [1]: 3 (20.0) n (%)
- Alopecia, Grade 1 [1]: 1 (6.7) n (%)
- Alopecia, Grade 2 [1]: 0 n (%)
- Alopecia, Grade 3 [1]: 0 n (%)
- Alopecia, Grade 4 [1]: 0 n (%)
- Alopecia, Grade 5 [1]: 0 n (%)
- Alopecia, Missing or Unknown [1]: 0 n (%)
- Alopecia, Total [1]: 1 (6.7) n (%)
- Anemia, Grade 1 [1]: 0 n (%)
- Anemia, Grade 2 [1]: 1 (6.7) n (%)
- Anemia, Grade 3 [1]: 0 n (%)
- Anemia, Grade 4 [1]: 0 n (%)
- Anemia, Grade 5 [1]: 0 n (%)
- Anemia, Missing or Unknown [1]: 0 n (%)
- Anemia, Total [1]: 1 (6.7) n (%)
- Arthralgia, Grade 1 [1]: 1 (6.7) n (%)
- Arthralgia, Grade 2 [1]: 0 n (%)
- Arthralgia, Grade 3 [1]: 0 n (%)
- Arthralgia, Grade 4 [1]: 0 n (%)
- Arthralgia, Grade 5 [1]: 0 n (%)
- Arthralgia, Missing or Unknown [1]: 0 n (%)
- Arthralgia, Total [1]: 1 (6.7) n (%)
- Aspartate aminotransferase increased, Grade 1 [1]: 2 (13.3) n (%)
- Aspartate aminotransferase increased, Grade 2 [1]: 0 n (%)
- Aspartate aminotransferase increased, Grade 3 [1]: 0 n (%)
- Aspartate aminotransferase increased, Grade 4 [1]: 0 n (%)
- Aspartate aminotransferase increased, Grade 5 [1]: 0 n (%)
- Aspartate aminotransferase increased, Missing or Unknown [1]: 0 n (%)
- Aspartate aminotransferase increased, Total [1]: 2 (13.3) n (%)
- Bilirubin conjugated increased, Grade 1 [1]: 0 n (%)
- Bilirubin conjugated increased, Grade 2 [1]: 1 (6.7) n (%)
- Bilirubin conjugated increased, Grade 3 [1]: 0 n (%)
- Bilirubin conjugated increased, Grade 4 [1]: 0 n (%)
- Bilirubin conjugated increased, Grade 5 [1]: 0 n (%)
- Bilirubin conjugated increased, Missing or Unknown [1]: 0 n (%)
- Bilirubin conjugated increased, Total [1]: 1 (6.7) n (%)
- Blood and lymphatic system disorders, Grade 1 [1]: 0 n (%)
- Blood and lymphatic system disorders, Grade 2 [1]: 1 (6.7) n (%)
- Blood and lymphatic system disorders, Grade 3 [1]: 0 n (%)
- Blood and lymphatic system disorders, Grade 4 [1]: 0 n (%)
- Blood and lymphatic system disorders, Grade 5 [1]: 0 n (%)
- Blood and lymphatic system disorders, Missing or Unknown [1]: 0 n (%)
- Blood and lymphatic system disorders, Total [1]: 1 (6.7) n (%)
- Blood bilirubin increased, Grade 1 [1]: 0 n (%)
- Blood bilirubin increased, Grade 2 [1]: 1 (6.7) n (%)
- Blood bilirubin increased, Grade 3 [1]: 0 n (%)
- Blood bilirubin increased, Grade 4 [1]: 0 n (%)
- Blood bilirubin increased, Grade 5 [1]: 0 n (%)
- Blood bilirubin increased, Missing or Unknown [1]: 0 n (%)
- Blood bilirubin increased, Total [1]: 1 (6.7) n (%)
- Blood bilirubin unconjugated increased, Grade 1 [1]: 1 (6.7) n (%)
- Blood bilirubin unconjugated increased, Grade 2 [1]: 0 n (%)
- Blood bilirubin unconjugated increased, Grade 3 [1]: 0 n (%)
- Blood bilirubin unconjugated increased, Grade 4 [1]: 0 n (%)
- Blood bilirubin unconjugated increased, Grade 5 [1]: 0 n (%)
- Blood bilirubin unconjugated increased, Missing or Unknown [1]: 0 n (%)
- Blood bilirubin unconjugated increased, Total [1]: 1 (6.7) n (%)
- Cardiac disorders, Grade 1 [1]: 1 (6.7) n (%)
- Cardiac disorders, Grade 2 [1]: 0 n (%)
- Cardiac disorders, Grade 3 [1]: 0 n (%)
- Cardiac disorders, Grade 4 [1]: 0 n (%)
- Cardiac disorders, Grade 5 [1]: 0 n (%)
- Cardiac disorders, Missing or Unknown [1]: 0 n (%)
- Cardiac disorders, Total [1]: 1 (6.7) n (%)
- Constipation, Grade 1 [1]: 2 (13.3) n (%)
- Constipation, Grade 2 [1]: 0 n (%)
- Constipation, Grade 3 [1]: 0 n (%)
- Constipation, Grade 4 [1]: 0 n (%)
- Constipation, Grade 5 [1]: 0 n (%)
- Constipation, Missing or Unknown [1]: 0 n (%)
- Constipation, Total [1]: 2 (13.3) n (%)
- Decreased appetite, Grade 1 [1]: 1 (6.7) n (%)
- Decreased appetite, Grade 2 [1]: 0 n (%)
- Decreased appetite, Grade 3 [1]: 0 n (%)
- Decreased appetite, Grade 4 [1]: 0 n (%)
- Decreased appetite, Grade 5 [1]: 0 n (%)
- Decreased appetite, Missing or Unknown [1]: 0 n (%)
- Decreased appetite, Total [1]: 1 (6.7) n (%)
- Dizziness, Grade 1 [1]: 1 (6.7) n (%)
- Dizziness, Grade 2 [1]: 0 n (%)
- Dizziness, Grade 3 [1]: 0 n (%)
- Dizziness, Grade 4 [1]: 0 n (%)
- Dizziness, Grade 5 [1]: 0 n (%)
- Dizziness, Missing or Unknown [1]: 0 n (%)
- Dizziness, Total [1]: 1 (6.7) n (%)
- Electrocardiogram QT prolonged, Grade 1 [1]: 2 (13.3) n (%)
- Electrocardiogram QT prolonged, Grade 2 [1]: 0 n (%)
- Electrocardiogram QT prolonged, Grade 3 [1]: 1 (6.7) n (%)
- Electrocardiogram QT prolonged, Grade 4 [1]: 0 n (%)
- Electrocardiogram QT prolonged, Grade 5 [1]: 0 n (%)
- Electrocardiogram QT prolonged, Missing or Unknown [1]: 0 n (%)
- Electrocardiogram QT prolonged, Total [1]: 3 (20.0) n (%)
- Fatigue, Grade 1 [1]: 1 (6.7) n (%)
- Fatigue, Grade 2 [1]: 0 n (%)
- Fatigue, Grade 3 [1]: 0 n (%)
- Fatigue, Grade 4 [1]: 0 n (%)
- Fatigue, Grade 5 [1]: 0 n (%)
- Fatigue, Missing or Unknown [1]: 0 n (%)
- Fatigue, Total [1]: 1 (6.7) n (%)
- Gamma-glutamyl transferase increased, Grade 1 [1]: 1 (6.7) n (%)
- Gamma-glutamyl transferase increased, Grade 2 [1]: 0 n (%)
- Gamma-glutamyl transferase increased, Grade 3 [1]: 0 n (%)
- Gamma-glutamyl transferase increased, Grade 4 [1]: 0 n (%)
- Gamma-glutamyl transferase increased, Grade 5 [1]: 0 n (%)
- Gamma-glutamyl transferase increased, Missing or Unknown [1]: 0 n (%)
- Gamma-glutamyl transferase increased, Total [1]: 1 (6.7) n (%)
- Gastrointestinal disorders, Grade 1 [1]: 4 (26.7) n (%)
- Gastrointestinal disorders, Grade 2 [1]: 0 n (%)
